Where no end group is shown, it is not given here.
Legend:
E. faecalis 29212 = assay type: cell-based, Enterococcus faecalis; settings: 29212, 24 h
Procedure: (§1) The antimicrobial activities of the peptides were measured using a method adapted from the National Committee for Clinical Laboratory Standards (NCCLS) with some modifications ([Chou et al., 2016]). The specific procedure for these assays has been previously described. In brief, the bacterial cells were grown to a mid-logarithmic phase and diluted in MHB to an ultimate concentration of 0.5–1 × 10^6 CFU mL^–1. Subsequently, the peptides were consecutively diluted in a 0.2% BSA solution and then added to a bacterial solution in a 96-well plate at identical volumes. After incubation for 24 h at 37°C, the MICs were determined to be the lowest peptide concentration that inhibited 95% of the bacterial growth by monitoring the absorbance at 492 nm using a microplate reader. Subsequently, 50 μL of each incubation mixture was further transferred to agar plates and incubated overnight. The minimum bactericidal concentrations (MBCs) were determined as the lowest peptide concentration that killed greater than 99.9% of the bacterial cells. Every assay was reproduced more than 3 times.

S. pullorum 7913 = assay type: cell-based, Salmonella pullorum; settings: 7913, 24 h
Procedure: as §1

B. subtilis 63501 = assay type: cell-based, Bacillus subtilis; settings: 63501, 24 h
Procedure: as §1

S. aureus 25923 = assay type: cell-based, Staphylococcus aureus; settings: 25923, 24 h
Procedure: as §1

S. aureus 29213 [1] = assay type: cell-based, Staphylococcus aureus; settings: 29213, 24 h
Procedure: as §1

MRSA 43300 = assay type: cell-based, methicillin-resistant S. aureus; settings: 43300, 24 h
Procedure: as §1

E. coli ATCC 25922 = assay: Salt sensitivity assay (MIC); assay type: cell-based, Escherichia coli; settings: for MIC, FeCl3: 4 μM FeCl3; for MIC, NH4Cl: 6 μM NH4Cl; for MIC, ZnCl2: 8 μM ZnCl2; for MIC, MgCl2: 1 mM MgCl2; for MIC, CaCl2: 2 mM CaCl2; for MIC, KCl: 4.5 mM KCl; for MIC, NaCl: 150 mM NaCl; for MIC, Control: no added salt, three independent assays
Procedure: as §1
(§2) The salt sensitivities of the peptides were determined. E. coli ATCC 25922 and S. aureus ATCC 29213 were incubated in the presence of various ultimate concentrations of physiological salts (150 mM NaCl, 4.5 mM KCl, 6 μM NH4Cl, 8 μM ZnCl2, 1 mM MgCl2, 2mM CaCl2, and 4 μM FeCl3) according to our previous protocol ([Yang et al., 2019]). These tests were performed under the MICs, and three independent assays were performed.

S. aureus 29213 [2] = assay: Salt sensitivity assay (MIC); assay type: cell-based, Staphylococcus aureus; settings: for MIC, FeCl3: 4 μM FeCl3; for MIC, NH4Cl: 6 μM NH4Cl; for MIC, ZnCl2: 8 μM ZnCl2; for MIC, MgCl2: 1 mM MgCl2; for MIC, CaCl2: 2 mM CaCl2; for MIC, KCl: 4.5 mM KCl; for MIC, NaCl: 150 mM NaCl; for MIC, Control: no added salt, three independent assays
Procedure: as §1, §2

S. typhimurium 14028 = assay type: cell-based, Salmonella typhimurium; settings: 14028, 24 h
Procedure: as §1

S. typhimurium 7731 = assay type: cell-based, Salmonella typhimurium; settings: 7731, 24 h
Procedure: as §1

[3] = system: Listeria monocytogenes CGMCC 1.1075; assay type: cell-based; settings: CGMCC 1.1075, 24 h
Procedure: as §1

Gram-negative bacteria = settings: for GM, Gram-negative bacteria: geometric mean of MICs (Table 3); for TI, Gram-negative bacteria: therapeutic index TI = MHC/GM MIC
Procedure: (§3) The antimicrobial activity of AMPs is the most decisive index for evaluating the clinical application of antimicrobial drugs.
as §1, with “The minimum bactericidal concentrations (MBCs) were determined as the lowest peptide concentration that killed greater than 99.9% of the bacterial cells.” left out

Gram-positive bacteria = settings: for GM, Gram-positive bacteria: geometric mean of MICs (Table 3); for TI, Gram-positive bacteria: therapeutic index TI = MHC/GM MIC
Procedure: as §3
as §1, with “The minimum bactericidal concentrations (MBCs) were determined as the lowest peptide concentration that killed greater than 99.9% of the bacterial cells.” left out

E. coli 25922 = assay type: cell-based, Escherichia coli; settings: 25922, 24 h
Procedure: as §1

E. coli O78 = assay type: cell-based, Escherichia coli; settings: O78, 24 h
Procedure: as §1

E. coli UB1005 = assay type: cell-based, Escherichia coli; settings: UB1005, 24 h
Procedure: as §1

S. epidermidis 12228 = assay type: cell-based, Staphylococcus epidermidis; settings: 12228, 24 h
Procedure: as §1

[4] = system: all of the tested bacterial strains; assay: Geometric mean of MICs, all tested bacterial strains; assay type: cell-based; settings: for GM, All: geometric mean of MICs across all tested strains; for TI, All: therapeutic index TI = MHC/GM MIC
Text: The antimicrobial activity of AMPs is the most decisive index for evaluating the clinical application of antimicrobial drugs. Many antimicrobial agents inhibit bacterial growth rather than kill the bacteria quickly, and long-term infections are pathogens that are not completely killed, which results in bacterial severe drug resistance. […] The geometric mean (GM) values of the MICs/MBCs of the two series across all of the tested bacterial strains are represented in Table 3, which depicts the average bacteriostatic/bactericidal level of a peptide.
as §1

P. aeruginosa 27853 = assay type: cell-based, Pseudomonas aeruginosa; settings: 27853, 24 h
Procedure: as §1

Substance: WRRWRWRWW-NH2 [W3]
- MBC (E. faecalis 29212): 8 µM
- MIC (E. faecalis 29212): 4 µM
- MBC (S. pullorum 7913): 4 µM
- MIC (S. pullorum 7913): 2 µM
- MBC (B. subtilis 63501): 2 µM
- MIC (B. subtilis 63501): 1 µM
- MBC (S. aureus 25923): 8 µM
- MIC (S. aureus 25923): 4 µM
- MBC (S. aureus 29213 [1]): 8 µM
- MIC (S. aureus 29213 [1]): 4 µM
- MBC (MRSA 43300): 4 µM
- MIC (MRSA 43300): 2 µM
- MIC, FeCl3 (E. coli ATCC 25922): 8 µM
- MIC, NH4Cl (E. coli ATCC 25922): 4 µM
- MIC, ZnCl2 (E. coli ATCC 25922): 8 µM
- MIC, MgCl2 (E. coli ATCC 25922): 8 µM
- MIC, CaCl2 (E. coli ATCC 25922): 8 µM
- MIC, KCl (E. coli ATCC 25922): 8 µM
- MIC, NaCl (E. coli ATCC 25922): 16 µM
- MIC, Control (E. coli ATCC 25922): 4 µM
- MIC, FeCl3 (S. aureus 29213 [2]): 8 µM
- MIC, NH4Cl (S. aureus 29213 [2]): 8 µM
- MIC, ZnCl2 (S. aureus 29213 [2]): 4 µM
- MIC, MgCl2 (S. aureus 29213 [2]): 4 µM
- MIC, CaCl2 (S. aureus 29213 [2]): 4 µM
- MIC, KCl (S. aureus 29213 [2]): 2 µM
- MIC, NaCl (S. aureus 29213 [2]): 8 µM
- MIC, Control (S. aureus 29213 [2]): 4 µM
- MBC (S. typhimurium 14028): 8 µM
- MIC (S. typhimurium 14028): 4 µM
- MBC (S. typhimurium 7731): 16 µM
- MIC (S. typhimurium 7731): 8 µM
- MBC [3]: 8 µM
- MIC [3]: 4 µM
- GM, Gram-negative bacteria (Gram-negative bacteria): 4.67 µM
- TI, Gram-negative bacteria (Gram-negative bacteria): 54.82
- GM, Gram-positive bacteria (Gram-positive bacteria): 2.69 µM
- TI, Gram-positive bacteria (Gram-positive bacteria): 95.17
- MBC (E. coli 25922): 8 µM
- MIC (E. coli 25922): 4 µM
- MBC (E. coli O78): 8 µM
- MIC (E. coli O78): 4 µM
- MBC (E. coli UB1005): 8 µM
- MIC (E. coli UB1005): 4 µM
- MBC (S. epidermidis 12228): 4 µM
- MIC (S. epidermidis 12228): 2 µM
- GM, All [4]: 3.67 µM
- TI, All [4]: 69.75
- MBC (P. aeruginosa 27853): 8 µM
- MIC (P. aeruginosa 27853): 4 µM

Substance: RRWWWRWRW-NH2 [W8]
- MBC (E. faecalis 29212): 8 µM
- MIC (E. faecalis 29212): 4 µM
- MBC (S. pullorum 7913): 4 µM
- MIC (S. pullorum 7913): 2 µM
- MBC (B. subtilis 63501): 2 µM
- MIC (B. subtilis 63501): 1 µM
- MBC (S. aureus 25923): 4 µM
- MIC (S. aureus 25923): 2 µM
- MBC (S. aureus 29213 [1]): 4 µM
- MIC (S. aureus 29213 [1]): 2 µM
- MBC (MRSA 43300): 4 µM
- MIC (MRSA 43300): 2 µM
- MIC, FeCl3 (E. coli ATCC 25922): 2 µM
- MIC, NH4Cl (E. coli ATCC 25922): 4 µM
- MIC, ZnCl2 (E. coli ATCC 25922): 4 µM
- MIC, MgCl2 (E. coli ATCC 25922): 16 µM
- MIC, CaCl2 (E. coli ATCC 25922): 8 µM
- MIC, KCl (E. coli ATCC 25922): 16 µM
- MIC, NaCl (E. coli ATCC 25922): 32 µM
- MIC, Control (E. coli ATCC 25922): 4 µM
- MIC, FeCl3 (S. aureus 29213 [2]): 2 µM
- MIC, NH4Cl (S. aureus 29213 [2]): 4 µM
- MIC, ZnCl2 (S. aureus 29213 [2]): 4 µM
- MIC, MgCl2 (S. aureus 29213 [2]): 4 µM
- MIC, CaCl2 (S. aureus 29213 [2]): 4 µM
- MIC, KCl (S. aureus 29213 [2]): 1 µM
- MIC, NaCl (S. aureus 29213 [2]): 2 µM
- MIC, Control (S. aureus 29213 [2]): 2 µM
- MBC (S. typhimurium 14028): 8 µM
- MIC (S. typhimurium 14028): 4 µM
- MBC (S. typhimurium 7731): 8 µM
- MIC (S. typhimurium 7731): 4 µM
- MBC [3]: 4 µM
- MIC [3]: 2 µM
- GM, Gram-negative bacteria (Gram-negative bacteria): 3.43 µM
- TI, Gram-negative bacteria (Gram-negative bacteria): 37.32
- GM, Gram-positive bacteria (Gram-positive bacteria): 2.00 µM
- TI, Gram-positive bacteria (Gram-positive bacteria): 64.00
- MBC (E. coli 25922): 8 µM
- MIC (E. coli 25922): 4 µM
- MBC (E. coli O78): 8 µM
- MIC (E. coli O78): 4 µM
- MBC (E. coli UB1005): 8 µM
- MIC (E. coli UB1005): 4 µM
- MBC (S. epidermidis 12228): 4 µM
- MIC (S. epidermidis 12228): 2 µM
- GM, All [4]: 2.71 µM
- TI, All [4]: 47.23
- MBC (P. aeruginosa 27853): 8 µM
- MIC (P. aeruginosa 27853): 4 µM
